Where two headings read alike, the source gives them in different places.
What was measured:
[1] = molecular target: T1, Human KIF18A (amino acid sequence 1-417) (Homo sapiens, UniProt Q8NI77); assay: Enzymatic Activity Test (ADP-Glo, microtubule-stimulated KIF18A ATPase); format: biochemical; settings: 60 µg/mL microtubules, 25 µM ATP, 2.5 nM KIF18A protein, 120 min at ambient temperature, chemiluminescence; read-out: KIF 18A IC50
T1 construct: purchased Viva Biotech (Shanghai) Ltd
T1 sequence (Q8NI77 1-417): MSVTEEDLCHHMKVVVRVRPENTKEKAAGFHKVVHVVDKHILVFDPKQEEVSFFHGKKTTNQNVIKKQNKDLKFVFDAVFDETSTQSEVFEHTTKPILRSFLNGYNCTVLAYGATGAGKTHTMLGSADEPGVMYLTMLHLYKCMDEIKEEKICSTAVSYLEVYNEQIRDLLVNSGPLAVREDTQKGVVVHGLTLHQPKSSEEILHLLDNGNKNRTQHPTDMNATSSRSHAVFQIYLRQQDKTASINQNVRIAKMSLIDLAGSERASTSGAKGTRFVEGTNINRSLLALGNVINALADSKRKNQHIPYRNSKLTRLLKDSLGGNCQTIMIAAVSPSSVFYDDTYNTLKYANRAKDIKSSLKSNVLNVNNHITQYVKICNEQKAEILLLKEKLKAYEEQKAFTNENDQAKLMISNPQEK
Method: Assay 1: Enzymatic Activity Test
Materials: Human KIF18A (amino acid sequence 1-417) was purchased from Viva Biotech (Shanghai) Ltd.; the ADP-Glo™ protein kinase kit was acquired from Promega, USA; tubulin was sourced from Cytoskeleton, USA; and the 384-well assay plate and Envision multifunctional microplate reader were obtained from PerkinElmer, USA.
Enzymatic Activity Test: The compound powder was dissolved in DMSO to prepare a stock solution of 10 mM. Then gradient dilution was performed for the compounds in the microplate to achieve a final concentration of 0-10 µM. Then, 2.5 µL each of tubulin, compound, ATP, and KIF18A protein were added to the microplate in sequence for reaction at ambient temperature for 120 min. The final concentrations in the enzyme reaction were 60 µg/mL for microtubules, 25 µM for ATP, and 2.5 nM for KIF18A protein. After the enzyme reaction, 10 µL of ADP-GLO reaction reagent was added to each well and incubated at room temperature for 30 min. After that, 20 µL of detection reagent was added to each well and incubated at room temperature for 30 min in the dark. Finally, chemiluminescence detection was performed using the PerkinElmer Envision.

[2] = test system: OVCAR3 cells; assay: Cell Proliferation Activity Test (CyQUANT Direct), OVCAR3; format: cell-based; settings: compound 0-10 µM, 3 days, 0.2% DMSO, CyQUANT fluorescence, read-out: OVCAR-3 _IC50_nM
Method: Assay 2: Cell Proliferation Activity Test
Materials and Cells: OVCAR3 cells were purchased from Nanjing Cobioer Biosciences Co., Ltd. RPMI-1640 medium, fetal bovine serum, and the CyQUANT Direct Cell Proliferation Assay kit were purchased from Thermo Fisher Scientific, USA; 96-well cell culture plates were sourced from Coming, USA.
Cell Culture: OVCAR3 cells were cultured with RPMI-1640 medium containing 10% fetal bovine serum and incubated in a 5% CO2 incubator at 37°C. Only cells in the logarithmic growth phase could be used for the test.
Cell Proliferation Activity Test:
OVCAR3 cells were inoculated into a 96-well cell culture plate at 90 µL per well and incubated overnight in a 5% CO2 incubator at 37°C. The compound powder was dissolved in DMSO to prepare a stock solution of 10 mM. Then gradient dilution was performed for the compounds in the microplate to achieve a final concentration of 0-10 µM. 10 µL of cell culture medium containing compounds was added to each well to make the final DMSO content 0.2%. The cell plates were incubated in a 5% CO2 incubator at 37°C for 3 days. 100 µL of CyQUANT detection reagent was added to each well, reacted at 37°C for 60 min, and fluorescence detection was performed using the PerkinElmer Envision.

[3] = test system: HT29 cells; assay: CyQuant Cell Proliferation Activity Test, HT29; format: cell-based; settings: HT29 cells 2000 per well, initial concentration 3000 nM, 3-fold dilution, 3 days, 0.2% DMSO, read-out: HT29_IC50 _nM
Method: Assay 3: CyQuant Cell Proliferation Activity Test
Materials and Cells: HT29 cells were purchased from Nanjing Cobioer Biosciences Co., Ltd.; RPMI-1640 medium, fetal bovine serum, Trypsin-EDTA (0.25%), 96-well plates, and CyQuant reagents were purchased from ThermoFisher (USA); DMSO was purchased from SIGMA (USA).
Cell Culture: HT29 cells were cultured with RPMI-1640 containing 10% fetal bovine serum under the condition of 37°C and 5% CO2. Only cells in the logarithmic growth phase could be used for the test.
Cell Proliferation Activity Test: CyQuant reagent was used to detect the proliferation inhibitory activity of compounds on HT29 cells. The cell density was adjusted, and 100 µL per well was inoculated into a 96-well plate (HT29 at 2000 cells per well), then incubated overnight at 37°C and 5% CO2. Add compounds of various target concentrations (initial concentration of 3000 nM, 3-fold dilution, 9 concentration gradients), and make the DMSO content 0.2%. The cell plate was incubated at 37°C in 5% CO2 for 3 days. CyQuant reagent was added and incubated for 1 h. The plates were read by Envision, and IC50 was calculated using XLFIT.

Structure (SMILES) | IC50 [1] | IC50 ([2]; Homo sapiens, OVCAR-3, 72 h) | IC50 ([3]; Homo sapiens, HT-29, 72 h) | IC50 [2] | IC50 [3]
Cc1cc2nc(n1)N1CCCC(C=CC3CCN(CC3)c3cc(NS(=O)(=O)CCO)ccc3C(=O)N2)C1 (stereo not drawn) [Example 4, 2-Hydroxy-N-(1^1-methyl-7-oxo-8-aza-1(2,4)-pyrimidin-2(1,3),5(4,1)-dipiperidin-6 (1,2)-benzeneheterocyclooct-3-en-6^5-yl)ethane-1-sulfonamide] | 736 nM | 1660 nM | > 3000 nM |  | 
Cc1cc2nc(n1)N1CCCC(C=CCCC3CCN(CC3)c3cc(NS(=O)(=O)CCO)ccc3C(=O)N2)C1 (stereo not drawn) [Example 6, 2-Hydroxy-N-(2^1-methyl-4-oxo-3-aza-2(2,4)-pyrimidin-1(1,3),6(1,4)-dipiperidin-5 (1,2)-benzenecyclodec-9-en-5^4-yl)ethane-1-sulfonamide] | 89 nM | 52 nM | 64 nM |  | 
Cc1cc2nc(n1)N1CCCC(C=CCC3CCCN(C3)c3cc(NS(=O)(=O)CCO)ccc3C(=O)N2)C1 (stereo not drawn) [Example 10, 2-Hydroxy-N-(2^6-methyl-4-oxo-3-aza-2(2,4)-pyrimidin-1,6(1,3)-dipiperidin-5(1,2) -benzeneheterocyclononane-8-en-5^4-yl)ethane-1-sulfonamide] | 200 nM | 136 nM | 172 nM |  | 
O=C1Nc2cccc(c2)S(=O)(=O)NCC=CC2CCN(CC2)c2cc(NS(=O)(=O)CCO)ccc21 [Example 15, (E)-N-(6,6-dioxo-3-oxo-6-thia-4,7-diaza-1(1,4)-piperidin-2(1,2),5(1,3)-diphenylheterocyclodec-9-en-2^5-yl)-2-hydroxy-1-ethanesulfonamide] | 275 nM | > 3000 nM | > 3000 nM |  | 
O=C1Nc2cccc(c2)S(=O)(=O)NCCCC2CCN(CC2)c2cc(NS(=O)(=O)CCO)ccc21 [Example 16, N-(6,6-dioxo-3-oxo-6-thia-4,7-diaza-1(1,4)-piperidin-2(1,2),5(1,3)-diphenylheterocyclodecane-2^5-yl)-2-hydroxy-1-ethanesulfonamide] | 588 nM | > 3000 nM | > 3000 nM |  | 
O=C1Nc2cccc(c2)S(=O)(=O)N2CCN(CCC3CCN(CC3)c3cc(NS(=O)(=O)CCO)ccc31)CC2 [Example 17, N-(6,6-dioxo-9-oxo-6-thia-8-aza-5(1,4)-piperazin-2(1,4)-piperidin-1(1,2),7(1,3)-diphenylheterocyclononane-1^3-yl)-2-hydroxyethane-1-sulfonamide] | 605 nM | > 3000 nM | > 3000 nM |  | 
Cc1cc2nc(n1)N1CCC(F)(F)C(C=CCC3CCN(CC3)c3cc(NS(=O)(=O)CCO)ccc3C(=O)N2)C1 (stereo not drawn) [Example 18A, N-((1^3S,E)-1^4,1^4-difluoro-2^1-methyl-4-oxo-3-aza-2(2,4)-pyrimidin-1(1,3),6(1,4)-dipiperidin-5(1,2)-benzeneheterocyclononane-8-en-5^4-yl)-2-hydroxyethane-1-sulfonamide] | > 3000 nM |  |  | > 3000 nM | > 3000 nM

Other lines, results leading:

IC50 [1] | IC50 ([2]; Homo sapiens, OVCAR-3, 72 h) | IC50 ([3]; Homo sapiens, HT-29, 72 h) | IC50 [2] | IC50 [3] | Structure (SMILES)
38 nM | 122 nM | 132 nM |  |  | Cc1cc2nc(n1)N1CCCC(CCC3CCN(CC3)c3cc(NS(=O)(=O)CCO)ccc3C(=O)N2)C1 (stereo not drawn) [Example 5, 2-Hydroxy-N-(1^1-methyl-7-oxo-8-aza-1(2,4)-pyrimidin-2(1,3),5(4,1)-dipiperidin-6 (1,2)-benzeneheterocyclooct-6^5-yl)ethane-1-sulfonamide]
197 nM | 242 nM | 255 nM |  |  | Cc1cc2nc(n1)N1CCCC(CCCCC3CCN(CC3)c3cc(NS(=O)(=O)CCO)ccc3C(=O)N2)C1 (stereo not drawn) [Example 7, 2-Hydroxy-N-(2^6-methyl-4-oxo-3-aza-2(2,4)-pyrimidin-1(1,3),6(1,4)-dipiperidin-5 (1,2)-benzenecyclodecane-5^4-yl)ethane-1-sulfonamide]
28 nM | 124 nM | 251 nM |  |  | O=C1Nc2cccc(c2)S(=O)(=O)NCC=CCCC2CCN(CC2)c2cc(NS(=O)(=O)CCO)ccc21 [Example 12, N-(6,6-dioxo-3-oxo-6-thia-4,7-diaza-1(1,4)-piperidin-2(1,2),5(1,3)-diphenylheterocyclododec-9-ene-2^5-yl)-2-hydroxy-1-ethanesulfonamide]
23 nM | 77 nM | 136 nM |  |  | O=C1Nc2cccc(c2)S(=O)(=O)NCCCCCC2CCN(CC2)c2cc(NS(=O)(=O)CCO)ccc21 [Example 13, N-(6,6-dioxo-3-oxo-6-thia-4,7-diaza-1(1,4)-piperidin-2(1,2),5(1,3)-diphenylheterocyclododecane-2^5-yl)-2-hydroxy-1-ethanesulfonamide]
21 nM | 85 nM | 152 nM |  |  | O=C1Nc2cccc(c2)S(=O)(=O)NCCCCC2CCN(CC2)c2cc(NS(=O)(=O)CCO)ccc21 [Example 14, N-(6,6-dioxo-3-oxo-6-thia-1(1,4)-piperidin-2(1,2),5(1,3)-diphenylheterocycloundecane-2^5-yl)-2-hydroxy-1-ethanesulfonamide]
94 nM |  |  | 31 nM | 34 nM | Cc1cc2nc(n1)N1CCC(F)(F)C(C=CCC3CCN(CC3)c3cc(NS(=O)(=O)CCO)ccc3C(=O)N2)C1 (stereo not drawn) [Example 18, N-(1^4,1^4-difluoro-2^6-methyl-4-oxo-3-aza-2(2,4)-pyrimidin-1(1,3),6(1,4)-dipiperidin-5(1,2)-benzeneheterocyclonon-8-en-5^4-yl)-2-hydroxyethane-1-sulfonamide]
46 nM |  |  | 12 nM | 16 nM | Cc1cc2nc(n1)N1CCC(F)(F)C(C=CCC3CCN(CC3)c3cc(NS(=O)(=O)CCO)ccc3C(=O)N2)C1 (stereo not drawn) [Example 18B, N-(1^3R,E)-1^4,1^4-difluoro-2^6-methyl-4-oxo-3-aza-2(2,4)-pyrimidin-1(1,3),6(1,4)-dip iperidin-5(1,2)-benzeneheterocyclononane-8-en-5^4-yl)-2-hydroxyethane-1-sulfonamide]
41 nM |  |  | 29 nM | 31 nM | Cc1cc2nc(n1)N1CCC(F)(F)C(C=CCC3CCN(CC3)c3cc(NS(=O)(=O)CCO)ccc3C(=O)N2)C1 (stereo not drawn) [Example 18C, N-((1^3S,Z)-1^4,1^4-difluoro-2^6-methyl-4-oxo-3-aza-2(2,4)-pyrimidin-1(1,3),6(1,4)-dipiperidin-5(1,2)-benzeneheterocyclononane-8-en-5^4-yl)-2-hydroxyethane-1-sulfonamide]

Source: EP4755892A1, “KINESIN KIF18A INHIBITOR AND USE THEREOF” (Shanghai Apeiron Therapeutics Company Limited, priority 2023, dated 2025)
